From patent publication US6737383B1, “Herbicidal oxadiazolidines” (priority 1999, dated 2004)

Columns and labels:
soybean = experiment: Test B pre/postemergence soybean; format: in vivo, Glycine max
How it was run: (§1)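 Herbicidal effect was estimated by eye on a ten-point control scale after plants spent twelve to sixteen days in a greenhouse following soil or foliar treatment. Foliar sprays targeted plants at one to four leaves; all doses were formulated in a non-phytotoxic solvent with surfactant.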

velvetleaf = experiment: Test B pre/postemergence velvetleaf; format: in vivo, Abutilon theophrasti
How it was run: as §1

rape = experiment: Test B pre/postemergence rape; format: in vivo, Brassica napus
How it was run: as §1

blackgrass = experiment: Test B pre/postemergence blackgrass; format: in vivo, Alopecurus myosuroides
How it was run: as §1

pigweed = experiment: Test B pre/postemergence pigweed; format: in vivo, Amaranthus retroflexus
How it was run: as §1

sugar beet = experiment: Test B pre/postemergence sugar beet; format: in vivo, Beta vulgaris
How it was run: as §1

bedstraw = experiment: Test B pre/postemergence bedstraw; format: in vivo, Galium aparine
How it was run: as §1

corn = experiment: Test B pre/postemergence corn; format: in vivo, Zea mays
How it was run: as §1

bamyardgrass = experiment: Test B flood test barnyardgrass; format: in vivo, Echinochloa crus-galli; settings: Pre-emergence
How it was run: (§2)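 Read-out is a visual response score from 0 (no effect) to 10 (complete control), assigned by comparison with untreated controls. Treatment was applied at the 2-leaf stage, and plants stayed in the greenhouse for twelve to sixteen days before scoring.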

smallflower flatsedge = experiment: Test B flood test smallflower flatsedge; format: in vivo, Cyperus difformis; settings: Pre-emergence
How it was run: as §2

wheat = experiment: Test B pre/postemergence wheat; format: in vivo, Triticum aestivum
How it was run: as §1

cocklebur = experiment: Test B pre/postemergence cocklebur; format: in vivo, Xanthium strumarium
How it was run: as §1

surinam grass = experiment: Test B pre/postemergence surinam grass; format: in vivo, Brachiaria decumbens
How it was run: as §1

wild oat = experiment: Test B pre/postemergence wild oat; format: in vivo, Avena fatua
How it was run: as §1

crabgrass = experiment: Test B pre/postemergence crabgrass; format: in vivo, Digitaria sanguinalis
How it was run: as §1

purple nutsedge = experiment: Test B pre/postemergence purple nutsedge; format: in vivo, Cyperus rotundus
How it was run: as §1

[1] = Preemergence, Rate 62 g/ha, scale of 0 to 10 where 0 is no effect and 10 is complete control
[2] = Preemergence, Rate 250 g/ha, scale of 0 to 10 where 0 is no effect and 10 is complete control
[3] = Preemergence, Rate 500 g/ha, scale of 0 to 10 where 0 is no effect and 10 is complete control
[4] = Rate 62 g/ha, Postemergence, scale 0 to 10, 0 no effect, 10 complete control
[5] = Rate 125 g/ha, Postemergence, scale of 0 to 10 where 0 is no effect and 10 is complete control
[6] = Rate 250 g/ha, Postemergence, scale of 0 to 10 where 0 is no effect and 10 is complete control
[7] = Rate 500 g/ha, Postemergence, scale 0 to 10, 0 no effect, 10 complete control
[8] = Rate 1000 g/ha, scale 0 to 10 (0 no effect, 10 complete control)
[9] = Rate 125 g/ha, flood test species, scale 0 to 10 where 0 is no effect and 10 is complete control
[10] = Rate 250 g/ha, flood-test species, scale 0 to 10, 0 is no effect, 10 is complete control
[11] = Rate 500 g/ha, flood test species, scale 0 to 10 (0 no effect, 10 complete control)

Which results are given for `Cc1ccccc1-n1c(=O)on(C(=O)N(c2ccc3ccccc3c2)C(C)C)c1=O` [Compound 306]?
Soybean plant response rating (soybean; [1]): 0; Soybean plant response rating (0 to 10 scale) (soybean; Preemergence, Rate 125 g/ha): 0; Soybean plant response rating (soybean; [2]): 0; Soybean plant response rating (soybean; [3]): 0; Soybean plant response rating (soybean; [4]): 1; Soybean plant response rating (soybean; [5]): 2; Plant response rating, Soybean (soybean; [6]): 2; Velvetleaf plant response rating (velvetleaf; [1]): 0; Velvetleaf plant response rating (0 to 10 scale) (velvetleaf; Preemergence, Rate 125 g/ha): 0; Velvetleaf plant response rating (velvetleaf; [2]): 0; Velvetleaf plant response rating (velvetleaf; [3]): 0; Velvetleaf plant response rating (velvetleaf; [4]): 0; Velvetleaf plant response rating (velvetleaf; [5]): 0; Plant response rating, Velvetleaf (velvetleaf; [6]): 0; Rape plant response rating (rape; [1]): 0; Rape plant response rating (0 to 10 scale) (rape; Preemergence, Rate 125 g/ha): 0; Rape plant response rating (rape; [2]): 0; Rape plant response rating (rape; [3]): 0; Rape plant response rating (rape; [4]): 0; Rape plant response rating (rape; [5]): 0; Plant response rating, Rape (rape; [6]): 0; Blackgrass plant response rating (blackgrass; [1]): 0; Blackgrass plant response rating (0 to 10 scale) (blackgrass; Preemergence, Rate 125 g/ha): 0; Blackgrass plant response rating (blackgrass; [2]): 0; Blackgrass plant response rating (blackgrass; [3]): 0; Blackgrass plant response rating (blackgrass; [4]): 0; Blackgrass plant response rating (blackgrass; [5]): 0; Plant response rating, Blackgrass (blackgrass; [6]): 0; Blackgrass plant response rating (blackgrass; [7]): 0; Redroot pigweed plant response rating (pigweed; [1]): 0; Redroot pigweed plant response rating (0 to 10 scale) (pigweed; Preemergence, Rate 125 g/ha): 0; Redroot pigweed plant response rating (pigweed; [2]): 0; Redroot pigweed plant response rating (pigweed; [3]): 0; Redroot pigweed plant response rating (pigweed; [4]): 0; Redroot pigweed plant response rating (pigweed; [5]): 0; Plant response rating, Redroot pigweed (pigweed; [6]): 0; Sugarbeets plant response rating (sugar beet; [1]): 0; Sugarbeets plant response rating (0 to 10 scale) (sugar beet; Preemergence, Rate 125 g/ha): 0; Sugarbeets plant response rating (sugar beet; [2]): 0; Sugarbeets plant response rating (sugar beet; [3]): 0; Sugarbeets plant response rating (sugar beet; [4]): 0; Sugarbeets plant response rating (sugar beet; [5]): 0; Plant response rating, Sugarbeets (sugar beet; [6]): 0; Bedstraw plant response rating (bedstraw; [1]): 0; Bedstraw plant response rating (0 to 10 scale) (bedstraw; Preemergence, Rate 125 g/ha): 0; Bedstraw plant response rating (bedstraw; [2]): 0; Bedstraw plant response rating (bedstraw; [3]): 0; Bedstraw plant response rating (bedstraw; [4]): 0; Bedstraw plant response rating (bedstraw; [5]): 0; Plant response rating, Bedstraw (bedstraw; [6]): 0; Bedstraw plant response rating (bedstraw; [7]): 0; Corn plant response rating (corn; [1]): 0; Corn plant response rating (0 to 10 scale) (corn; Preemergence, Rate 125 g/ha): 0; Corn plant response rating (corn; [2]): 0; Corn plant response rating (corn; [3]): 0; Corn plant response rating (corn; [4]): 0; Corn plant response rating (corn; [5]): 0; Plant response rating, Corn (corn; [6]): 0; Corn plant response rating (corn; [7]): 0; Barnyardgrass plant response rating (bamyardgrass; [8]): 0; Barnyardgrass plant response rating (bamyardgrass; [9]): 0; Barnyardgrass plant response rating (bamyardgrass; [10]): 0; Barnyardgrass plant response rating (bamyardgrass; [11]): 0; S. Flatsedge plant response rating (smallflower flatsedge; [8]): 0; S. Flatsedge plant response rating (smallflower flatsedge; [9]): 0; S. Flatsedge plant response rating (smallflower flatsedge; [10]): 0; S. Flatsedge plant response rating (smallflower flatsedge; [11]): 0; Wheat plant response rating (wheat; [1]): 0; Wheat plant response rating (0 to 10 scale) (wheat; Preemergence, Rate 125 g/ha): 0; Wheat plant response rating (wheat; [2]): 0; Wheat plant response rating (wheat; [3]): 0; Wheat plant response rating (wheat; [4]): 0; Wheat plant response rating (wheat; [5]): 0; Plant response rating, Wheat (wheat; [6]): 0; Cocklebur plant response rating (cocklebur; [1]): 0; Cocklebur plant response rating (0 to 10 scale) (cocklebur; Preemergence, Rate 125 g/ha): 0; Cocklebur plant response rating (cocklebur; [2]): 0; Cocklebur plant response rating (cocklebur; [3]): 0; Cocklebur plant response rating (cocklebur; [4]): 0; Cocklebur plant response rating (cocklebur; [5]): 0; Plant response rating, Cocklebur (cocklebur; [6]): 0; Cocklebur plant response rating (cocklebur; [7]): 0; B. signalgrass plant response rating (surinam grass; [1]): 0; B. signalgrass plant response rating (0 to 10 scale, 0 is no effect, 10 is complete control) (surinam grass; Preemergence, Rate 125 g/ha): 0; B. signalgrass plant response rating (surinam grass; [2]): 0; B. signalgrass plant response rating (surinam grass; [3]): 0; B. signalgrass plant response rating (surinam grass; [4]): 0; B. signalgrass plant response rating (surinam grass; [5]): 0; Plant response rating, B. signalgrass (surinam grass; [6]): 0; B. signalgrass plant response rating (surinam grass; [7]): 0; Wild oats plant response rating (wild oat; [1]): 0; Wild oats plant response rating (0 to 10 scale) (wild oat; Preemergence, Rate 125 g/ha): 0; Wild oats plant response rating (wild oat; [2]): 0; Wild oats plant response rating (wild oat; [3]): 0; Wild oats plant response rating (wild oat; [4]): 0; Wild oats plant response rating (wild oat; [5]): 0; Plant response rating, Wild oats (wild oat; [6]): 0; Crabgrass plant response rating (crabgrass; [1]): 0; Crabgrass plant response rating (0 to 10 scale) (crabgrass; Preemergence, Rate 125 g/ha): 0; Crabgrass plant response rating (crabgrass; [2]): 0; Crabgrass plant response rating (crabgrass; [3]): 0; Crabgrass plant response rating (crabgrass; [4]): 0; Crabgrass plant response rating (crabgrass; [5]): 0; Plant response rating, Crabgrass (crabgrass; [6]): 0; Nutsedge plant response rating (purple nutsedge; [1]): 0; Nutsedge plant response rating (0 to 10 scale) (purple nutsedge; Preemergence, Rate 125 g/ha): 0; Nutsedge plant response rating (purple nutsedge; [2]): 0; Nutsedge plant response rating (purple nutsedge; [3]): 0; Nutsedge plant response rating (purple nutsedge; [4]): 0; Nutsedge plant response rating (purple nutsedge; [5]): 0; Plant response rating, Nutsedge (purple nutsedge; [6]): 0
